For experiment [1], the target named is α-thrombin (Homo sapiens, UniProt P00734). The experiment is described as follows: antithrombin activity: inhibition of α-thrombin digesting Chromozym TH. The experiment is classed as biochemical. On the procedure: The amino acid composition is determined by the dimethylaminoazobenzene sulfonyl (dabsyl) chloride method (Chang et al. Anal. Biochem. (1991), 197, 52-58.), which allows direct quantization of the disulfide content. The amino acid sequence was analyzed by an Applied Biosystem Inc. 470A protein sequencer. The antithrombin activity of desulphatohirudin derivatives was assessed by their ability to inhibit α-thrombin from digesting Chromozym TH (Boehringer Mannheim), using the described protocol (Stone et al. Biochemistry (1986), 25, 4622-4628; Chatrenet et al. J. Biol. Chem. (1992), 267, 3038-3043). The molecular weight of desulphatohirudin is […], determined by the laser desorption ionization mass spectrometry using a home-built instrument (Boernsen et al. Chimia (1990), 44, 412-416).

The test system of experiment [2] is plasma APTT. The experiment is described as follows: ex vivo plasma APTT after subcutaneous administration in the rat. As to conditions: s.c. 1 ml/kg, dimer 4.5 mg/ml, HV1 3.0 mg/ml, mean±SEM, n=5. On the procedure: (APTT=activated partial thrombin time)
[Cys^33 ]HV1--[Cys^33 ]HV1 dimer is dissolved in saline to a concentration of 4.5 mg/ml and unmodified hirudin-monomer is dissolved in saline to a concentration of 3.0 mg/ml (these doses are chosen based on the in vitro results in order to achieve a similar effect on APTT at 1 h). Solutions are administered subcutaneously to rats (1 ml/kg). At various times after administration, blood (2 ml) is collected by cardiac puncture directly into one tenth volume trisodium titrate solution (3.8% w/v) and immediately mixed. The anticoagulated blood is centrifuged at 2500 g for 20 min to obtain platelet free plasma.
Plasma samples are assayed for APTT using standard methods on the Instrumentation Laboratory ACL 300R coagulometer. The method for APTT determination utilizes the Instrumentation Laboratory ellagic acid test kit--plasma (50 μl) is incubated with ellagic acid activating reagent (50 μl) at 37° C. for 5 min prior to the addition of calcium chloride solution (50 μl of 25 mM solution) and the time taken for the plasma clot is recorded automatically, the end point being determined optically by the light scattered when the fibrin network formed (see table 1).
The results are expressed as a multiple of the means control APTT value and presented as mean±standard error of the mean (n=5).

In experiment [3] the target is human thrombin (Homo sapiens, UniProt P00734). The experiment is described as follows: kinetic parameters for inhibition of human thrombin (progress-curve experiments, D-Phe-pipecolyl-Arg-p-nitroanilide). Type of experiment: biochemical. As to conditions: substrate 100 μM, enzyme 20 pM; weighted means of two determinations. On the procedure:
The kinetic parameters of the [Cys^33 ]HV1--[Cys^33 ]HV1 dimer are determined from progress-curve experiments as described by Stone et al. Biochemistry (1986), 25, 4622-4628 and Braun et al. Biochemistry, (1988), 27, 6517-6522. For each determination, the formation of p-nitroaniline from D-Phe-pipecolyl-Arg-p-nitroanilide is monitored in six assays, one in absence of inhibitor and the others with different concentrations of inhibitor ranging from 10 to 60 pM for the [Cys^33 ]HV1--[Cys^33 ]HV1 dimer. The substrat concentration is 100 μM and the enzyme concentration is 20 pM.
The kinetic parameters are determined twice and values given in table 2 represent the weightened means of the estimates.

For “Cys^33 monomer: mutant of recombinant desulphatohirudin HV1 with cysteine replacing aspartic acid at position 33 (SEQ ID NO: 8)”, the “potency of thrombin inhibition, monomer versus dimer” value in experiment [1] (comparison of Cys33 monomer and dimer) is listed as “nearly indistinguishable (±3%)”.
Take “HV1: unmodified desulphatohirudin variant 1 monomer, used as comparator”: the “thrombin inhibition (inhibitory activity, equal weight basis)” value in experiment [1] (1 nM desulphatohirudin, 1.5 nM α-thrombin) amounted to 82±5%. The “APTT as multiple of the mean control APTT value” in experiment [2] (0 hours) is listed as 1.00 ± 0.02 multiple of control APTT; in experiment [2] (1 hour) it was 2.44 ± 0.07 multiple of control APTT; in experiment [2] (4 hours), 1.43 ± 0.05 multiple of control APTT; in experiment [2] (6 hours), 0.95 ± 0.02 multiple of control APTT. The “10^8 k1” value in experiment [3] is listed as 1.37 ± 0.03 M^-1 s^-1.
